Where two headings read alike, the source gives them in different places. Starred links: 1 amine or outer side, 2 acyl side, 3 side chain; linkers in the order of their positions; H or OH if unused. Non-standard residues stand in square brackets, D forms with d. Residues, ends and D or L forms follow the SMILES beside them. Groups on a side chain read outwards from the residue. *: point of attachment. C18 diacid = O=C(O)CCCCCCCCCCCCCCCCC(=O)*; γGlu = O=C(O)[C@H](CCC(=O)[*:2])N[*:1]; Palmitoyl = CCCCCCCCCCCCCCCC(=O)*; AEEA = NCCOCCOCC(=O)O; Aib = CC(C)(N)C(=O)O
What was measured:
[1] = target: T1, human CRF2α receptor (Homo sapiens, UniProt Q13324); test: cAMP agonism at human CRF2 α receptor in TeloHEAC cells (Example 7); type: cell-based; conditions: cAMP HTRF, TeloHEAC cells stably expressing human CRF2 α
T1 construct: expressed in transfected cells; host or cells: TeloHEAC
T1 sequence (Q13324 1-411): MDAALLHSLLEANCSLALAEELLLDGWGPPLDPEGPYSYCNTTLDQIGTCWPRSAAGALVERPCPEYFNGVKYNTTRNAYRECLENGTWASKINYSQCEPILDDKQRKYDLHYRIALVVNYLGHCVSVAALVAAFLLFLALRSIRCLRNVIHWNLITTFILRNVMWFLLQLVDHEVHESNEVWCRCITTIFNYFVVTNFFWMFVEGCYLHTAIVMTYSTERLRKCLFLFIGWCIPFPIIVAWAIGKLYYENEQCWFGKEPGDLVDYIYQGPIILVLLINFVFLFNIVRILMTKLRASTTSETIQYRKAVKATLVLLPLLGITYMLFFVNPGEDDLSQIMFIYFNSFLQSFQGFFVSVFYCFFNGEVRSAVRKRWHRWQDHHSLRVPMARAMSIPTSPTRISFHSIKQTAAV
Method in brief: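 Steps: thaw and wash cells; suspend in 1×HBSS, 20 mM HEPES, 0 or 0.1% HSA, 2 mM IBMX; add compound, 30 min RT; lyse with HTRF reagents, 1 h; read 665/620 nm. EC50 calculated, E% versus 1000 nM UCN2.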

[2] = target: T2, CRF1R receptor (Homo sapiens, UniProt P34998); test: cAMP activity at anti-target CRF1R, CRF1R-overexpression CHO cell line (Example 9); type: cell-based; conditions: CRF1R-overexpression CHO cell line; for EC50: 0% HSA; for Emax: read-out: Emax (%)
T2 construct: host or cells: CHO-K1 clone 2
T2 sequence (P34998 24-415): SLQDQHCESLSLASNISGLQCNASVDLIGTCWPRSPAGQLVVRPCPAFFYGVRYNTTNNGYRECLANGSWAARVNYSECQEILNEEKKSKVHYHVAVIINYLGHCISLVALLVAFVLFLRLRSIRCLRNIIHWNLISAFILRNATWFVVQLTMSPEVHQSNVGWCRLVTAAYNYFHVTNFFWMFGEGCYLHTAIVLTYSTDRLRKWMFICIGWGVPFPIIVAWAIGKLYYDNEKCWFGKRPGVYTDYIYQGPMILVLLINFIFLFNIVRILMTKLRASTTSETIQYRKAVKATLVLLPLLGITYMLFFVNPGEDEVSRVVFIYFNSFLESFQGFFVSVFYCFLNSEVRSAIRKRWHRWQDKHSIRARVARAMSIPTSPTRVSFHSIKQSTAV
Description: Cells were grown in a T175 culture flask placed at 37° C. to near confluence in medium (DMEM/10% FBS) and collected in 2 ml vials in cell culture medium containing 10% DMSO in a concentration of 10-50 million cells/ml. Each vial contained 1.8 ml cells. The vials were slowly frozen to −80° C. in isopropanol and then transferred in liquid nitrogen for storage. Prior to use, frozen cells were thawed quickly at 37° C. and washed (5 min at 900 rpm) with 20 ml cell buffer (1×HBSS; 20 mM HEPES; 0% or 0.1% HSA). Cells were resuspended in assay buffer (cell buffer plus 2 mM IBMX) and adjusted to a cell density of 1 million cells/ml. For measurement, 5 μl cells (final […]) and 5 μL of test compound were added to a 384-well plate, followed by incubation for 30 minutes at room temperature.
The CAMP content of cells was determined using a kit from Cisbio Corp. (cat. no. 62AM4PEC) based on HTRF (Homogenous Time Resolved Fluorescence). […] The percent activity value (E %) was calculated by setting 1000 nM of urocortin 2 (UCN2) as 100%.
A CRF1R-overexpression CHO cell line was used in this study.

[3] = 0% HSA, read-out: EC50 [nM], 0% HSA
[4] = 0.1% HSA, read-out: EC50 [nM], 0.1% HSA

Row | EC50 [1, 3] [nM] | EC50 [2] [nM] | Emax [2] [%] | EC50 [1, 4] [nM] | SMILES
1 | 0.02 | – | 59.2 | – | CCCCCCCCCCCCCCCC(=O)N[C@@H](CCC(=O)NCCCC[C@H](NC(=O)[C@H](CC(C)C)NC(=O)[C@H](CCCCN)NC(=O)[C@@H](NC(=O)[C@@H]1CCCN1C(=O)[C@H](NC(=O)[C@H](CC(=O)O)NC(=O)[C@H](CC(C)C)NC(=O)[C@H](CO)NC(=O)[C@H](CC(C)C)NC(=O)[C@@H](NC(=O)[C@@H](N)[C@@H](C)CC)C(C)C)C(C)C)[C@@H](C)O)C(=O)N[C@@H](CCC(N)=O)C(=O)N[C@@H](CCCCN)C(=O)N[C@@H](CC(C)C)C(=O)N[C@@H](CC(C)C)C(=O)N[C@@H](CCCCN)C(=O)N[C@@H](CCC(N)=O)C(=O)N[C@@H](CCC(=O)O)C(=O)N[C@@H](CCCNC(=N)N)C(=O)N[C@@H](CCC(N)=O)C(=O)N[C@@H](CCCNC(=N)N)C(=O)N[C@@H](CCCCN)C(=O)N[C@@H](CCC(=O)O)C(=O)NC(C)(C)C(=O)N[C@@H](CCC(=O)O)C(=O)N[C@@H](CCC(N)=O)C(=O)N[C@@H](C)C(=O)N[C@@H](CCC(=O)O)C(=O)N[C@@H](CCCCN)C(=O)N[C@@H](CC(N)=O)C(=O)N[C@@H](CCCCN)C(=O)N[C@@H](CCCNC(=N)N)C(=O)N[C@H](C(=O)N[C@@H](CC(C)C)C(=O)N[C@@H](CCC(=O)O)C(=O)N[C@@H](CCCNC(=N)N)C(=O)N[C@H](C(N)=O)C(C)C)[C@@H](C)CC)C(=O)O [compound 21] (H-IVLSLD[dV]PTKLK([γGlu-Palmitoyl])QKLLKQERQRKE[Aib]EQAEKNKRILERV-NH2; N-terminus assumed)
2 | 0.17 | > 1000 | 7.54 | 2.62 | CC[C@H](C)[C@H](N)C(=O)N[C@H](C(=O)N[C@@H](CC(C)C)C(=O)N[C@@H](CO)C(=O)N[C@@H](CC(C)C)C(=O)N[C@@H](CC(=O)O)C(=O)N[C@@H](C(=O)N1CCC[C@H]1C(=O)N[C@H](C(=O)N[C@@H](CCCCN)C(=O)N[C@@H](CC(C)C)C(=O)N[C@@H](CCCCNC(=O)COCCOCCNC(=O)COCCOCCNC(=O)CC[C@H](NC(=O)CC[C@H](NC(=O)CCCCCCCCCCCCCCCCC(=O)O)C(=O)O)C(=O)O)C(=O)N[C@@H](CCC(N)=O)C(=O)N[C@H](C(=O)N[C@@H](CC(C)C)C(=O)N[C@@H](CC(C)C)C(=O)N[C@@H](CCCCN)C(=O)N[C@@H](CCC(N)=O)C(=O)N[C@@H](CCC(=O)O)C(=O)N[C@@H](CCCNC(=N)N)C(=O)N[C@@H](CCC(N)=O)C(=O)N[C@@H](CCCCN)C(=O)NC(C)(C)C(=O)N[C@@H](CCC(N)=O)C(=O)N[C@@H](CCCNC(=N)N)C(=O)N[C@@H](CCC(=O)O)C(=O)N[C@@H](CCC(N)=O)C(=O)N[C@@H](C)C(=O)N[C@@H](CCC(=O)O)C(=O)N[C@@H](CCCCN)C(=O)N[C@@H](CC(N)=O)C(=O)N[C@@H](CCCCN)C(=O)N[C@@H](CCC(N)=O)C(=O)N[C@H](C(=O)N[C@@H](CC(C)C)C(=O)N[C@@H](C)C(=O)N[C@@H](CCC(N)=O)C(=O)N[C@H](C(N)=O)C(C)C)[C@@H](C)CC)[C@@H](C)CC)[C@@H](C)CC)C(C)C)C(C)C [compound 171] (H-IVLSLD[dV]PIKLK([AEEA-AEEA-γGlu-γGlu-C18 diacid])QILLKQERQK[Aib]QREQAEKNKQILAQV-NH2)

The next lines start with the compound.

Row | SMILES | EC50 [1, 3] [nM] | EC50 [2] [nM] | Emax [2] [%] | EC50 [1, 4] [nM]
3 | CCCCCCCCCCCCCCCC(=O)N[C@@H](CCC(=O)NCCCC[C@H](NC(=O)[C@@H](NC(=O)[C@H](CCCCN)NC(=O)[C@@H](NC(=O)[C@@H]1CCCN1C(=O)[C@@H](NC(=O)[C@H](CC(=O)O)NC(=O)[C@H](CC(C)C)NC(=O)[C@H](CO)NC(=O)[C@H](CC(C)C)NC(=O)[C@@H](NC(=O)[C@@H](N)Cc1ccccc1)[C@@H](C)O)C(C)C)[C@@H](C)O)[C@@H](C)CC)C(=O)N[C@@H](CCC(N)=O)C(=O)N[C@@H](CCCCN)C(=O)N[C@@H](CC(C)C)C(=O)N[C@@H](CC(C)C)C(=O)N[C@@H](CCCCN)C(=O)N[C@@H](CCC(N)=O)C(=O)N[C@@H](CCC(=O)O)C(=O)N[C@@H](CCCCN)C(=O)N[C@@H](CCC(N)=O)C(=O)N[C@@H](CCCNC(=N)N)C(=O)N[C@@H](CCCCN)C(=O)N[C@@H](CCC(N)=O)C(=O)N[C@@H](CCCCN)C(=O)N[C@@H](CCC(N)=O)C(=O)N[C@@H](CCC(N)=O)C(=O)N[C@@H](C)C(=O)N[C@@H](CCCCN)C(=O)N[C@H](C(=O)N[C@@H](CC(N)=O)C(=O)N[C@@H](C)C(=O)N[C@@H](CCCCN)C(=O)N[C@H](C(=O)N[C@@H](CC(C)C)C(=O)N[C@@H](C)C(=O)N[C@@H](CCCNC(=N)N)C(=O)N[C@H](C(N)=O)C(C)C)[C@@H](C)CC)[C@@H](C)O)C(=O)O [compound 12] (H-FTLSLDVPTKIK([γGlu-Palmitoyl])QKLLKQEKQRKQKQQAKTNAKILARV-NH2) | 0.09 | > 1000 | 41.8 | –
4 | CC[C@H](C)[C@H](NC(C)=O)C(=O)N[C@H](C(=O)N[C@@H](CC(C)C)C(=O)N[C@@H](CO)C(=O)N[C@@H](CC(C)C)C(=O)N[C@@H](CC(=O)O)C(=O)N[C@@H](C(=O)N1CCC[C@H]1C(=O)N[C@H](C(=O)N[C@@H](CCCCN)C(=O)N[C@@H](CC(C)C)C(=O)N[C@@H](CCCCNC(=O)COCCOCCNC(=O)COCCOCCNC(=O)CC[C@H](NC(=O)CCCCCCCCCCCCCCCCC(=O)O)C(=O)O)C(=O)N[C@@H](CCC(N)=O)C(=O)N[C@H](C(=O)N[C@@H](CC(C)C)C(=O)N[C@@H](CC(C)C)C(=O)N[C@@H](CCC(=O)O)C(=O)N[C@@H](CCC(N)=O)C(=O)N[C@@H](CCC(=O)O)C(=O)N[C@@H](CCCNC(=N)N)C(=O)N[C@@H](CCC(N)=O)C(=O)N[C@@H](CCC(=O)O)C(=O)NC(C)(C)C(=O)N[C@@H](CCC(=O)O)C(=O)N[C@@H](CCCNC(=N)N)C(=O)N[C@@H](CCC(=O)O)C(=O)N[C@@H](CCC(N)=O)C(=O)N[C@@H](C)C(=O)N[C@@H](CCC(=O)O)C(=O)N[C@H](C(=O)N[C@@H](CC(N)=O)C(=O)N[C@@H](CCCCN)C(=O)N[C@@H](CCC(N)=O)C(=O)N[C@H](C(=O)N[C@@H](CC(C)C)C(=O)N[C@@H](CCC(=O)O)C(=O)N[C@@H](CCC(N)=O)C(=O)N[C@H](C(N)=O)C(C)C)[C@@H](C)CC)[C@@H](C)O)[C@@H](C)CC)[C@@H](C)CC)C(C)C)C(C)C [compound 160] (Ac-IVLSLD[dV]PIKLK([AEEA-AEEA-γGlu-C18 diacid])QILLEQERQE[Aib]EREQAETNKQILEQV-NH2) | 8.56 | > 1000 | 20.8 | 28.9
5 | CC[C@H](C)[C@H](NC(C)=O)C(=O)N[C@H](C(=O)N[C@@H](CC(C)C)C(=O)N[C@@H](CO)C(=O)N[C@@H](CC(C)C)C(=O)N[C@@H](CC(=O)O)C(=O)N[C@@H](C(=O)N1CCC[C@H]1C(=O)N[C@H](C(=O)N[C@@H](CCCCN)C(=O)N[C@@H](CC(C)C)C(=O)N[C@@H](CCCCNC(=O)COCCOCCNC(=O)COCCOCCNC(=O)CC[C@H](NC(=O)CCCCCCCCCCCCCCCCC(=O)O)C(=O)O)C(=O)N[C@@H](CCC(N)=O)C(=O)N[C@H](C(=O)N[C@@H](CC(C)C)C(=O)N[C@@H](CC(C)C)C(=O)N[C@@H](CCC(=O)O)C(=O)N[C@@H](CCC(N)=O)C(=O)N[C@@H](CCC(=O)O)C(=O)N[C@@H](CCCNC(=N)N)C(=O)N[C@@H](CCC(N)=O)C(=O)N[C@@H](CCC(=O)O)C(=O)NC(C)(C)C(=O)N[C@@H](CCC(=O)O)C(=O)N[C@@H](CCCNC(=N)N)C(=O)N[C@@H](CCC(=O)O)C(=O)N[C@@H](CCC(N)=O)C(=O)N[C@@H](C)C(=O)N[C@@H](CCC(=O)O)C(=O)N[C@@H](CCCCN)C(=O)N[C@@H](CC(N)=O)C(=O)N[C@@H](CCC(=O)O)C(=O)N[C@@H](CCC(N)=O)C(=O)N[C@H](C(=O)N[C@@H](CC(C)C)C(=O)N[C@@H](CCC(=O)O)C(=O)N[C@@H](CCC(N)=O)C(=O)N[C@H](C(N)=O)C(C)C)[C@@H](C)CC)[C@@H](C)CC)[C@@H](C)CC)C(C)C)C(C)C [compound 161] (Ac-IVLSLD[dV]PIKLK([AEEA-AEEA-γGlu-C18 diacid])QILLEQERQE[Aib]EREQAEKNEQILEQV-NH2) | 36 | > 1000 | 3.42 | 977
